Laboratory results: patent publication US11225477B2, “Inhibitors of influenza virus replication, application methods and uses thereof” (SUNSHINE LAKE PHARMA CO., LTD., priority 2015, dated 2022)

Assays:
[1] = SD, rat, in vivo; for F: po, 5 mg/kg
Procedure: (§1) The compounds disclosed herein were administered in form of a saline solution containing 5% DMSO, 5% Kolliphor HS 15 and 90% Saline. […] Plasma samples were collected and stored at −20° C. or −70° C. until LC/MS/MS analysis.

virus H1N1 A/Weiss/43 [2] = experiment: microbe, parasite or virus in culture; type: cell-based; conditions: Influenza A virus, 120 h; MDCK cells, H1N1 A/Weiss/43, Scheme 1: 8 concentrations 100 μM to 0.05 μM, 5 days, CCK-8
virus H1N1 A/Weiss/43 [3] = experiment: microbe, parasite or virus in culture; type: cell-based; conditions: Influenza A virus, 120 h; MDCK cells, H1N1 A/Weiss/43, Scheme 2: 8 concentrations 50 nM to 0.023 nM, 5 days, CCK-8
in vivo = conditions: SD, rat
Procedure: as §1

SMILES | F [1] [%] | EC50 (virus H1N1 A/Weiss/43 [2]) [nM] | CL ([1]; iv, 1 mg/kg) [mL/min/kg] | EC50 (virus H1N1 A/Weiss/43 [3]) [nM] | AUC(0-inf) (in vivo; iv, 1 mg/kg) [ng·h/mL] | AUC(0-t) (in vivo; iv, 1 mg/kg) [ng·h/mL] | Cmax (in vivo; iv, 1 mg/kg) [ng/mL] | Tmax (in vivo; iv, 1 mg/kg) [h] | Vd (in vivo; iv, 1 mg/kg) [L/kg] | half-life (in vivo; iv, 1 mg/kg) [h] | AUC(0-inf) (in vivo; po, 5 mg/kg) [ng·h/mL] | AUC(0-t) (in vivo; po, 5 mg/kg) [ng·h/mL] | Cmax (in vivo; po, 5 mg/kg) [ng/mL] | Tmax (in vivo; po, 5 mg/kg) [h] | half-life (in vivo; po, 5 mg/kg) [h] | clearance (in vivo; iv, 1 mg/kg) [mL/min/kg]
O=C(O)C1C2CCC(CC2)C1Nc1nc(-c2c[nH]c3ncc(F)cc23)ncc1F (racemic) [Control VX-787 (racemization), (+/−)-trans-3-((5-fluoro-2-(5-fluoro-1H-pyrrolo[2,3-b]pyridin-3-yl)pyrimidin-4-yl)amino)bicyclo[2.2.2]octane-2-carboxylic acid, reference compound] | 58.4 | – | – | – | – | – | – | – | – | – | – | – | – | – | – | –
COc1ccc(-c2cc(NC3C4CCC(CC4)C3C(=O)O)nc(-c3c[nH]c4ncc(F)cc34)n2)cc1 (racemic) [Example 3, (+/−)-trans-3-((2-(5-fluoro-1H-pyrrolo[2,3-b]pyridin-3-yl)-6-(4-methoxyphenyl)pyrimidin-4-yl)amino)bicyclo[2.2.2]octane-2-carboxylic Acid] | – | < 50 | – | – | – | – | – | – | – | – | – | – | – | – | – | –
O=C(O)C1C2CCC(CC2)C1Nc1cc(-c2ccc(F)cc2)nc(-c2c[nH]c3ncc(F)cc23)n1 (racemic) [Example 6, (+/−)-trans-3-((2-(5-fluoro-1H-pyrrolo[2,3-b]pyridin-3-yl)-6-(4-fluorophenyl)pyrimidin-4-yl)amino)bicyclo[2.2.2]octane-2-carboxylic Acid] | – | < 50 | – | – | – | – | – | – | – | – | – | – | – | – | – | –
O=C(O)C1C2CCC(CC2)C1Nc1cc(-c2ccco2)nc(-c2c[nH]c3ncc(F)cc23)n1 (racemic) [Example 9, (+/−)-trans-3-((2-(5-fluoro-1H-pyrrolo[2,3-b]pyridin-3-yl)-6-(furan-2-yl)pyrimidin-4-yl)amino)bicyclo[2.2.2]octane-2-carboxylic Acid] | 47.5 | – | 97.7 | 0.066 | 7350 | 7260 | 10900 | 0.083 | 0.551 | 1.52 | 17500 | 17400 | 5270 | 0.5 | 3.15 | –
O=C(O)C1C2CCC(CC2)C1Nc1cc(-c2cc3ccccc3s2)nc(-c2c[nH]c3ncc(F)cc23)n1 (racemic) [Example 17, (+/−)-trans-3-((6-(benzo[b]thiophen-2-yl)-2-(5-fluoro-1H-pyrrolo[2,3-b]pyridin-3-yl)pyrimidin-4-yl)amino)bicyclo[2.2.2]octane-2-carboxylic Acid] | 66.4 | – | – | 0.54 | 2520 | 2510 | 4420 | 0.083 | 1.49 | 1.12 | 8360 | 8270 | 2660 | 0.5 | 0.911 | 6.62
O=C(O)C1C2CCC(CC2)C1Nc1cc(-c2cccc3c2oc2ccccc23)nc(-c2c[nH]c3ncc(F)cc23)n1 (racemic) [Example 18, (+/−)-trans-3-((6-(dibenzo[b,d]furan-4-yl)-2-(5-fluoro-1H-pyrrolo[2,3-b]pyridin-3-yl)pyrimidin-4-yl)amino)bicyclo[2.2.2]octane-2-carboxylic Acid] | 43.1 | – | – | – | 3190 | 3130 | 4470 | 0.083 | 0.598 | 4.37 | 6880 | 6840 | 1690 | 2 | 3.71 | 5.3
O=C(O)C1C2CCC(CC2)C1Nc1nc(-c2c[nH]c3ncc(F)cc23)nc(C#Cc2ccccc2)c1F (racemic) [Example 63, (+/−)-trans-3-((5-fluoro-2-(5-fluoro-1H-pyrrolo[2,3-b]pyridin-3-yl)-6-phenylethynyl)pyrimidin-4-yl)amino)bicyclo[2.2.2]octane-2-carboxylic Acid] | 65 | – | – | – | 4750 | 4710 | 4990 | 0.083 | 0.416 | 3.85 | 15400 | 15300 | 3280 | 2 | 3.59 | 3.55
Cn1ccc2c(NC3C4CCC(CC4)C3C(=O)O)nc(-c3c[nH]c4ncc(F)cc34)nc21 (racemic) [Example 65, (+/−)-trans-3-((2-(5-fluoro-1H-pyrrolo[2,3-b]pyridin-3-yl)-7-methyl-7H-pyrrolo[2,3-d]pyrimidin-4-yl)amino)bicyclo[2.2.2]octane-2-carboxylic Acid] | 44.9 | – | – | 0.66 | 5360 | 5340 | 6830 | 0.083 | 0.168 | 0.965 | 12100 | 12000 | 7940 | 0.417 | 1.14 | 3.13
O=C(O)C1C2CCC(CC2)C1Nc1cc(C2CC2)nc(-c2c[nH]c3ncc(F)cc23)n1 (racemic) [Example 68, (+/−)-trans-3-((6-cyclopropyl-2-(5-fluoro-1H-pyrrolo[2,3-b]pyridin-3-yl)pyrimidin-4-yl)amino)bicyclo[2.2.2]octane-2-carboxylic Acid] | 60.1 | – | – | – | 2880 | 2760 | 3750 | 0.083 | 0.551 | 2.01 | 8330 | 8310 | 2960 | 0.417 | 3.24 | 5.86
Cc1nc2[nH]cc(-c3nc(NC4C5CCC(CC5)C4C(=O)O)cc(-c4ccccc4)n3)c2cc1F (racemic) [Example 80, (+/−)-trans-3-((2-(5-fluoro-6-methyl-1H-pyrrolo[2,3-b]pyridin-3-yl)-6-phenylpyrimidin-4-yl)amino)bicyclo[2.2.2]octane-2-carboxylic Acid] | 62.5 | – | – | – | 3380 | 3320 | 5630 | 0.083 | 1.5 | 1.53 | 10600 | 10100 | 3130 | 0.833 | 1.48 | 4.94
CC(C)(C)[C@@H](CC(=O)O)Nc1nc(-c2c[nH]c3ncc(F)cc23)nc(-c2ccco2)c1F [Example 61, (R)-3-((5-fluoro-2-(5-fluoro-1H-pyrrolo[2,3-b]pyridin-3-yl)-6-(furan-2-yl)pyrimidin-4-yl)amino)-4,4-dimethylpentanoic Acid] | 53.1 | – | – | – | 4050 | 4030 | 8540 | 0.083 | 0.585 | 0.542 | 10700 | 10400 | 2710 | 1.5 | 5.95 | 4.17
O=C(O)[C@H]1C2CCC(CC2)[C@@H]1Nc1cc(-c2ccco2)nc(-c2c[nH]c3nc(F)ccc23)n1 [Example 73, (2S,3S)-3-((2-(6-fluoro-1H-pyrrolo[2,3-b]pyridin-3-yl)-6-(furan-2-yl)pyrimidin-4-yl)amino)bicyclo[2.2.2]octane-2-carboxylic Acid] | 42.6 | – | – | – | 24800 | 24200 | 14800 | 0.083 | 0.212 | 1.41 | 52800 | 50600 | 9300 | 1.5 | 5.58 | 0.681
